Data reported in patent publication US10494402B2, “Peptides that stimulate subcutaneous adipogenesis” (The Regents of the University of California, priority 2012, dated 2019).

Tests used:
[1] = tested on: rat mesenchymal stem cells; assay: Adipogenesis Assay 1 (IBMX/dexamethasone priming, peptide replaces insulin; Oil Red O or BODIPY); format: cell-based; settings: for adipogenic activity, Oil Red O, fold change relative to negative control / Fold adipogenic induction vs. negative control / Specific activity (activity/1000 daltons): Assay 1; for adipogenic activity, Oil Red O, fold change relative to negative control: 0.5, 5, and 50 μg/ml over 3 weeks; for adipogenic activity of truncation fragments: truncation experiments, assays 1 and 2, FIGS. 7, 8, 9
Description: Reagents: (1) 3-isobutyl-1-methylxanthine (IBMX) solution: 0.5M in DMSO; (2) Insulin solution: 10 mg/mL recombinant human insulin; (3) Dexamethasone solution in 10 mM in ethanol; (4) Oil Red O (0.36% in 60% isopropanol) or BODIPY dye (BODIPY 493/503 (4,4-difluoro-1,3,5,7-tetramethyl-4-bora-3a,4a-diaza-s-indacene-8-propionic acid, succinimidyl ester) from Invitrogen at 4-10 μM).
Adipogenesis Initiation Media: mesenchymal stem cell expansion media/0.5 mM IBMX/1 μM dexamethasone. Mesenchymal stem cell expansion media is commercially available from Millipore. The IBMX Solution was diluted 1:1000 and the Dexamethasone Solution was diluted 1:10,000 in expansion media containing antibiotics and antimycotics. The prepared media was stored at 4° C.
Adipogenesis Progression Media for positive control: mesenchymal stem cell expansion media/10 μg/mL insulin. The Insulin Solution was diluted 1:1000 in the expansion media and stored at 4° C.
Experimental Adipogenesis Progression Media: mesenchymal stem cell expansion media/1-100 μg/mL RHAMM antagonist peptides.
Adipogenesis Maintenance Media: mesenchymal stem cell expansion media containing antibiotics and antimycotics.
Negative Control Media: DMEM/10% normal calf serum.
Pre-adipocyte stem cells including bone marrow mesenchymal stem cells and fibroblasts including reticular and papillary dermal fibroblasts were propagated using standard tissue culture methods. Cells were trypsinized to remove the cells from the substratum. The trypsin was neutralized and cells were counted using a hemocytometer. Cells were resuspended at 30,000 cells/mL in expansion media. […] of cell suspension was plated per well of 24-well plate, with several wells left empty for blank well staining.
Cells were incubated for 1-2 days until they reached confluency. Approximately 1.8 mL of media was removed from each well and replaced with 2 mL Adipogenesis Initiation Media. For negative control wells, expansion media only was used at this step and for subsequent media changes. For all media changes, media was replaced as gently as possible to avoid disturbing the monolayer.
Cells were incubated for 48 hours at 37° C., 5% CO2. 2 mL media was removed from each well, and replaced with 2 mL either positive control or experimental Adipogenesis Progression Media per well. Cells were again incubated for 48 hours at 37° C., 5% CO2. 2 mL of media was removed from each well and replaced with 2 mL Adipogenesis Maintenance Media per well. In addition, media was added to the empty wells reserved for blank well staining Cells were incubated for at least 48 hours at 37° C., 5% CO2. Media was replaced every 48-72 hours. Accumulation of intracellular lipid droplets continued for at least 5 days.
For quantification of Oil Red O staining, media was removed and cells were washed twice with PBS, using care to gently add the PBS. 0.5 mL Oil Red O solution was added per well of 24-well plate, including to the wells lacking cells, but containing media. Cells were incubated for 15 minutes at room temperature. The staining solution was then removed and wells were washed three times with 1 mL of phosphate buffered saline (PBS). In some experiments, following removal of the last wash, stained plates were scanned or photographed.
Adipogenesis was quantified using a spectrophotometer or fluorometer. 0.25 mL Dye Extraction Solution (isopropyl alcohol) was added per well, and the plate was set on an orbital shaker or platform rocker for 15-30 minutes. Extracted dye was transferred into a cuvette and absorbance was read in a spectrophotometer at visible range for oil red 0 or transferred to a 96-well plate and quantified in a plate reader.
For quantification of BODIPY dye uptake, media was removed and cells were washed twice with PBS, using care to gently add the PBS. Cells were then fixed in 3% paraformaldehyde, washed in PBS then incubated for 1 hour in the dark with the BODIPY solution, prepared in PBS. […]

[2] = tested on: rat mesenchymal stem cells; assay: Adipogenesis Assay 2 (dexamethasone/insulin/indomethacin induction, then peptide; Oil Red O or BODIPY); format: cell-based; settings: for adipogenic activity of pentamers / adipogenic activity relative to KSEVSK hexamer: FIG. 35, groups labelled A2-, doses 1, 5, 25 μg, absorbance at 520 nm; for Fold adipogenic induction vs. negative control / Specific activity (activity/1000 daltons) / adipogenic activity, Oil Red O, fold change relative to negative control: Assay 2; for adipogenic activity, Oil Red O, fold change relative to negative control: 0.5, 5, and 50 μg/ml over 3 weeks
Description: Reagents: The dexamethasone, insulin, and Oil Red O solutions were the same as described above for assay 1. Indomethacin Solution contained 10 mM indomethacin in methanol. The BODIPY 493/503 dye was used at a concentration of 4 μM.
Adipogenesis Maintenance Media was prepared as described above.
Adipogenesis Induction Media: To prepare 501 mL of Adipogenesis Induction Media, 50 μL of the 10 mM stock solution of dexamethasone, 500 μL of the 10 mg/ml stock solution of insulin, 5 ml of a 10 mM stock solution of indomethacin, and 5 mL of a 100× stock solution of penicillin and streptomycin were added to 490 mL of mesenchymal stem cell expansion media.
Pre-adipocyte stem cells, bone marrow mesenchymal stem cells and fibroblasts such as dermal reticular and papillary fibroblasts were propagated using standard tissue culture methods. Cells were trypsinized to remove cells from the substratum, the trypsin was neutralized, and cells were counted using a hemocytometer. Cells were resuspended at 60,000 cells/ml in low glucose DMEM containing 10% calf serum. 1 mL of cell suspension per well was plated in a 24-well plate, with several wells left empty for blank well staining.
Cells were incubated overnight and had reached confluency at this point. Approximately 1.8 ml of media was removed from each well and replaced with 2 ml Adipogenesis Induction Media. For negative control wells, expansion medium only was used at this step and for subsequent media changes. For all media changes, media was replaced as gently as possible to avoid disturbing the monolayer.
Media was removed and replaced with 2 ml of maintenance medium containing either RHAMM antagonist peptides (experimental group) or insulin (concentration as in the induction medium used as positive control). […]
Media was removed and BODIPY or Oil Red O staining was performed as described above for assay 1.
As described above in Example 1, two different adipogenesis assays were used herein to assess the adipogenic effects of the peptides in rat mesenchymal stem cells. Assay 1 is an assay that is typically used to promote transdifferentiation of fibroblasts into adipocytes, whereas Assay 2 is typically used to promote differentiation of multi-potential mesenchymal progenitor cells into adipocytes. Immortalized rat bone marrow mesenchymal stem cells were used for both assays. These cells contain cells of different lineages, including fibroblasts, pre-adipocytes, pre-chondrocytes and pre-osteoblasts. Thus, Assay 1 was used to promote transdifferentiation of the fibroblast lineages into adipocytes and Assay 2 was used to promote differentiation of the pre-adipocytes into adipocytes.
As described in Example 1 above, the priming stimulus for Assay 1 includes IBMX (3-isobutyl-1-methylxanthine) and dexamethasone, and then insulin as the final adipogenic stimulus. The priming stimulus for assay 2 includes IBMX, dexamethasone and indomethacin, and then insulin as the final adipogenic stimulus.

[3] = tested on: 2D rat Pre-adipocytes (rat mesenchymal stem cells); assay: Adipogenic potential ranking in 2D tissue culture, rat pre-adipocytes; format: cell-based; settings: ranked on a scale of 0-5 with 5 representing the highest possible score
Description: (§1) Examples of the adipogenic effects of RHAMM antagonists (peptide B (SEQ ID NO: 2), peptide P15-1 (SEQ ID NO. 1), and the antibody to peptide B) are summarized in Table 1. Peptide P15-1, peptide B, and a RHAMM antibody were assayed for their effects on pre-adipocyte stem cells in culture and when injected into the dermis of aged rats. Reagents were ranked on a scale of 0-5 with 5 representing the highest possible score and a completely filled in Harvey ball. “2D” refers to two-dimensional tissue culture.

[4] = tested on: Rat skin; assay: Rat dermal skin model of adipogenesis (injection into dermis); format: in vivo; settings: injected into the dermis of aged rats; scale of 0-5, 5 highest
Description: as §1
In FIGS. 5A and 5B, data are shown as a ratio of the area (“surface area”) of fat pads expressed as a ratio of experimental/control values.
The 6-mer (KSEVSK; SEQ ID NO: 3) was tested for adipogenic effect in rat skin in vivo. The results of this testing are shown in the photographs in FIG. 10.

[5] = tested on: 2D human Pre-adipocytes; assay: Adipogenic potential ranking in 2D tissue culture, human pre-adipocytes; format: cell-based; settings: scale of 0-5, 5 highest
Description: as §1

[6] = tested on: mesenchymal stem cells or papillary fibroblasts; assay: Adipogenesis by RHAMM antagonists in tissue culture and in vivo (summary statements)
Description: We hypothesized that the fragment and the antibody were blocking RHAMM function by competitive inhibition and by direct binding/blocking of RHAMM, respectively. Using truncation analyses, the size of the peptide was further reduced to 32 amino acids ([…] (SEQ ID NO: 92)) and it was shown that adipogenic activity is localized to a 15 amino acid peptide (KLKDENSQLKSEVSK (SEQ ID NO: 2); “peptide B” or “B-1” herein) shown in FIG. 2. This peptide was chemically synthesized to use as a competitive blocker, and antibodies were prepared against this sequence tagged with keyhold lymphocyte hemacyanin (KLH) to directly bind/block RHAMM function.
The RHAMM sequence that contains adipogenic activity also contains the hyaluronan binding region of this protein.
All of these reagents can replace insulin in their ability to promote adipogenesis in mesenchymal stem cells or papillary fibroblasts.

[7] = tested on: mesenchymal stem cell; assay: Adipogenesis with commercially available mesenchymal stem cell kit; format: cell-based
Description: Ablation of RHAMM expression promotes adipogenesis (Tolg et al., 2006, J Cell Biol). A RHAMM carboxy-terminal sequence [^AA681LDAFEAEKQA LLNEHGATQEQLNKIRDSYAQLLGHQNLKQKIKHVVKLKDENSQLKSEVSKLRSQLVKRKQNELRLQGELDKALGIRHFDPSKAFCHASKENFTPLKEGNPNCC^aa794 (SEQ ID NO: 91)] was produced as a recombinant protein, and antibodies were prepared to this protein fragment.

ASEVSA
adipogenic activity, Oil Red O, fold change relative to negative control [1]: significantly increased adipogenic activity as compared to both the negative control and the KSEVSK 6-mer

KLKDENS [fragment corresponding to one half of peptide B]
adipogenic activity of truncation fragments [1]: Only the SQLKSEVSK (SEQ ID NO: 44) fragment was found to be adipogenic

KSEVS
adipogenic activity of pentamers [2]: low level of adipogenic activity | adipogenic activity relative to KSEVSK hexamer [2]: much less active than the KSEVSK (SEQ ID NO: 3) hexamer

LKSEVSK
Fold adipogenic induction vs. negative control [2]: 3 | Specific activity (activity/1000 daltons) [2]: 3.39 activity/1000 daltons | Fold adipogenic induction vs. negative control [1]: 2 | Specific activity (activity/1000 daltons) [1]: 2.26 activity/1000 daltons | adipogenic activity of truncation fragments [1]: also found to be adipogenic

LSELEK
adipogenic activity, Oil Red O, fold change relative to negative control [2]: increased adipogenesis

SEVSK
adipogenic activity of pentamers [2]: low level of adipogenic activity | adipogenic activity relative to KSEVSK hexamer [2]: much less active than the KSEVSK (SEQ ID NO: 3) hexamer

SIMMSR
adipogenic activity, Oil Red O, fold change relative to negative control [2]: weakly adipogenic | adipogenic activity, Oil Red O, fold change relative to negative control [1]: weakly adipogenic

SQLKSEVSK
Fold adipogenic induction vs. negative control [2]: 3.0 | Specific activity (activity/1000 daltons) [2]: 2.64 activity/1000 daltons | Fold adipogenic induction vs. negative control [1]: 2.4 | Specific activity (activity/1000 daltons) [1]: 2.11 activity/1000 daltons | adipogenic activity of truncation fragments [1]: found to be adipogenic

STMMRSH
adipogenic activity, Oil Red O, fold change relative to negative control [2]: active at the 0.5 μg/ml concentration | adipogenic activity, Oil Red O, fold change relative to negative control [1]: significantly greater adipogenic activity than the negative control

STMMSRSHK
adipogenic activity of truncation fragments [1]: has adipogenic activity

STMMSRSHKTRSHHV [peptide P15-1, reference compound]
adipogenic potential, 2D rat Pre-adipocytes (rat mesenchymal stem cells) [3]: 2 | adipogenic potential, In vivo Rat skin [4]: 2 | adipogenic potential, 2D human Pre-adipocytes [5]: 2 | adipogenesis in tissue culture and in vivo [6]: promotes adipogenesis in tissue culture and in vivo

STRMSR
adipogenic activity, Oil Red O, fold change relative to negative control [2]: weakly adipogenic | adipogenic activity, Oil Red O, fold change relative to negative control [1]: weakly adipogenic

STTMSR
adipogenic activity, Oil Red O, fold change relative to negative control [2]: weakly adipogenic | adipogenic activity, Oil Red O, fold change relative to negative control [1]: weakly adipogenic

B1: SEQ ID NO: 91: RHAMM carboxy-terminal sequence (aa681-aa794) produced as a recombinant protein (protein)
chain: LDAFEAEKQALLNEHGATQEQLNKIRDSYAQLLGHQNLKQKIKHVVKLKDENSQLKSEVSKLRSQLVKRKQNELRLQGELDKALGIRHFDPSKAFCHASKENFTPLKEGNPNCC
adipogenesis [7]: promoted adipogenesis
